From US20240400647A1, “Biologically Active Collagen Hybridizing Peptides” (3HELIX, INC., priority 2021, published 2024)

Tested on: IMR-90 human lung fibroblasts
Test: IMR-90 fibroblast culture with peptides, gelatin or collagen added to media
Assay type: cell-based
Conditions: 30 μg/mL added to media, imaged after three days at 37° C.
Description: IMR-90 human lung fibroblasts were purchased from ITCC. Cells were thawed and cultured in EMEM supplemented with 10% FBS and 1% Pen-Strep. Cells were cultured to 80-95% confluency then sub-cultured for three passages prior to utilization in experiments.
Experimental wells were prepared by adding 100 μL cell media to wells of a 96-well gelatin coated plate (corning) or 300 μL media to the wells of a 48-well uncoated cell culture plate. Peptides, as listed below, were added to each well (5 μL to 96 well plates, 10 μL to 48 well plates).
During passaging, cells were quantified, and 2100 IMR-90 cells were added to each well of the 96 well gelatin-coated plate. For the uncoated plate IMR-90 cells were added to each well. Additional media was added to bring the volume to 200 μL (96 well) or 500 μL (48 well). Cells were cultured at 37° C., 5% CO2 for three days then imaged. […] Media was added one day later (day 4) then allowed to culture an additional 2 days before imaging and lysing cells. qPCR was performed on cell lysate following cDNA synthesis (cell-to-CT kit, Thermo Fisher scientific).

collagen
confluence and directionality of cell growth: higher confluence and more directionality in cell growth

gelatin
confluence and directionality of cell growth: higher confluence and more directionality in cell growth
